The text below walks through data of PubChem BioAssay (NCI).

“And” between values parts separate entries of the source, which are not always exact repeats. Equal entries are not always repeated.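 The compound was tested at five concentrations on cells cultured in 96-well plates, with a 48-hour exposure period. GI50 = concentration required for 50% inhibition of growth. TGI: total growth inhibition.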

Test systems include HCC-2998 colon; NCI-H522 lung; IGROV1 ovarian; RXF 393 renal; SNB-19 CNS; 786-0 renal; OVCAR-4 ovarian; MCF7 breast; NCI/ADR-RES ovarian; MDA-MB-231 breast.
Test in all cases: DTP human tumour cell line panel, 48 h

One may read the TGI as the concentration at which net growth stops. Lower therefore signals greater sensitivity of the cells. In the case of `CC(=O)OC12C(C)=C(C)C(=O)N1c1ccccc1N2C(C)=O` (stereo not drawn), the TGI in the test on HCC-2998 colon, in the test with NCI-H522 lung, with IGROV1 ovarian, in the test with RXF 393 renal, with SNB-19 CNS and in the test with 786-0 renal was above 100 µM throughout. Further, in the test on OVCAR-4 ovarian, the total growth inhibition concentration (TGI) was above 100 µM.
Turning to `COc1ccc(CC(=O)NCCc2ccc(OC)c(OC)c2OC)cc1`, the concentration for total growth inhibition (TGI) in the test with HCC-2998 colon, in the test with NCI-H522 lung, in the test with IGROV1 ovarian, in the test on RXF 393 renal, with SNB-19 CNS and in the test on 786-0 renal was above 100 µM in each case.
As usually defined, the GI50 is the concentration giving 50% growth inhibition. In the case of `O=C1c2ccccc2-c2c3c(cc4ccnc1c24)OCO3`, the total growth inhibition concentration (TGI) in the test with HCC-2998 colon was 60.1 µM; in the test with NCI-H522 lung, 13.3 µM and 15.5 µM; in the test with IGROV1 ovarian it was > 100 µM and 34.3 µM; in the test on RXF 393 renal, 18.4 µM and 33 µM; in the test on SNB-19 CNS, > 100 µM and 77.4 µM; with 786-0 renal, 27.2 µM and > 100 µM. In addition, the total growth inhibition concentration (TGI) in the test with OVCAR-4 ovarian was 69.7 µM and > 100 µM. Also, the GI50 with NCI-H522 lung is 0.885 µM and 4.26 µM.
Regarding `CC(Oc1ccc2c(-c3ccc(Cl)cc3)cc(=O)oc2c1)C(=O)O` (stereo not drawn), the TGI in the test on HCC-2998 colon, in the test with NCI-H522 lung, in the test with IGROV1 ovarian, in the test with RXF 393 renal, with SNB-19 CNS and in the test on 786-0 renal was above 100 µM in each case. In addition, the total growth inhibition concentration (TGI) with OVCAR-4 ovarian was above 100 µM.
Consider `CCOC(=O)c1ccc(-n2cnc(-c3ccc([N+](=O)[O-])cc3)c2)cc1`, for which the TGI was above 100 µM in the test on MCF7 breast; above 100 µM with HCC-2998 colon; 36 µM in the test with NCI-H522 lung; above 100 µM with IGROV1 ovarian; above 100 µM with NCI/ADR-RES ovarian; above 100 µM in the test with SNB-19 CNS. The TGI in the test on MDA-MB-231 breast and in the test on 786-0 renal was above 100 µM throughout.
For `CC(C)(C)C(=O)N1C(C(=O)O)Cc2ccccc2[C@@H]1Cc1ccccc1` (stereo partly drawn), the total growth inhibition concentration (TGI) in the test on HCC-2998 colon, in the test with NCI-H522 lung, with IGROV1 ovarian, in the test on RXF 393 renal, in the test on SNB-19 CNS and in the test with 786-0 renal was above 100 µM in each case. Moreover, the TGI with OVCAR-4 ovarian is above 100 µM.
On to `Nc1ncc(-c2ccc3ncnc(Nc4cccc(Cl)c4)c3c2)cn1`, for which the GI50 in the test with MCF7 breast is 0.186 µM; in the test on NCI-H522 lung, 0.128 µM; in the test with IGROV1 ovarian it was 0.0206 µM; in the test on SNB-19 CNS it was 0.387 µM and 2.28 µM; in the test with MDA-MB-231 breast, 2.22 µM; with 786-0 renal it was 0.339 µM and 1.78 µM. Further, the TGI is 4.95 µM in the test with NCI-H522 lung; 0.223 µM in the test on IGROV1 ovarian; above 100 µM with SNB-19 CNS; above 100 µM in the test with MDA-MB-231 breast; above 100 µM with 786-0 renal.
For the compound `C=CCC1(C(=O)OC)CCC/C(=N\O)C1` (stereo not drawn), the total growth inhibition concentration (TGI) in the test on MCF7 breast, in the test with HCC-2998 colon, with NCI-H522 lung, in the test on IGROV1 ovarian, in the test with NCI/ADR-RES ovarian and in the test on SNB-19 CNS was above 10 µM throughout. Moreover, the TGI with MDA-MB-231 breast, in the test with 786-0 renal and with OVCAR-4 ovarian was above 10 µM throughout.
`CCN(CC)CCN(CC)CC.CCN(CC)CCN(CC)CC.[Cu+2].[Cu+2].[O-][Cl+3]([O-])([O-])[O-].[OH3+].[OH3+]`: the GI50 was 25.6 µM in the test with NCI-H522 lung; 29.4 µM in the test on IGROV1 ovarian; 22 µM in the test on SNB-19 CNS; 46 µM in the test on 786-0 renal; 27.7 µM with OVCAR-4 ovarian. In addition, the TGI in the test with NCI-H522 lung was 55.2 µM; with IGROV1 ovarian, 87.9 µM; with SNB-19 CNS, 36.6 µM; with 786-0 renal, above 100 µM; in the test with OVCAR-4 ovarian it was 51.2 µM.
Take `O=[N+]([O-])c1nccn1CC(O)c1ccccc1` (stereo not drawn): the TGI in the test on NCI-H522 lung, in the test with IGROV1 ovarian, in the test with RXF 393 renal, in the test with SNB-19 CNS, with 786-0 renal and with OVCAR-4 ovarian was above 100 µM throughout.
For the compound `CCOC(=O)C1(C(=O)OCC)C(C(C)(C)C)=C(C)c2ccccc21`, the TGI in the test on HCC-2998 colon came to 31.2 µM; in the test with NCI-H522 lung, 22.2 µM; in the test on IGROV1 ovarian, 36 µM; in the test on RXF 393 renal it was 26.6 µM; in the test with SNB-19 CNS, 45 µM; with 786-0 renal, 29.7 µM. In addition, in the test on OVCAR-4 ovarian, the concentration for total growth inhibition (TGI) was found to be 45.3 µM.
Consider `CC(C)(C)C1=CC(=N/N=c2\scc(-c3ccccc3)n2-c2ccccc2)C=C(C(C)(C)C)C1=O`, for which the TGI in the test on HCC-2998 colon, with NCI-H522 lung, in the test on IGROV1 ovarian, in the test with RXF 393 renal, in the test on SNB-19 CNS and in the test on 786-0 renal was above 100 µM in each case. In the test with OVCAR-4 ovarian, this compound gave a TGI above 100 µM.
As for `COc1ccc(/C=C/c2cc(OC)c(OC(C)=O)c(OC)c2)cc1`, the TGI in the test on HCC-2998 colon is 39 µM; in the test with NCI-H522 lung, 46.1 µM; in the test on IGROV1 ovarian, above 100 µM; with SNB-19 CNS, above 100 µM; with 786-0 renal it was above 100 µM; in the test on OVCAR-4 ovarian, above 100 µM.
With `O=C(CC1(O)C(=O)Nc2c(Cl)cc(Cl)cc21)c1ccccc1` (stereo not drawn), the total growth inhibition concentration (TGI) in the test on NCI-H522 lung, in the test on IGROV1 ovarian, in the test on RXF 393 renal, in the test with SNB-19 CNS, in the test with 786-0 renal and with OVCAR-4 ovarian was above 100 µM each time.
`O=C(C[n+]1ccccc1)N/N=C(/CCC(=O)N(Cc1ccccc1)Cc1ccccc1)CC(=O)c1ccccc1`: the TGI in the test on HCC-2998 colon, in the test on NCI-H522 lung, with IGROV1 ovarian, with RXF 393 renal, with SNB-19 CNS and in the test on 786-0 renal was above 100 µM each time. Further, the TGI with OVCAR-4 ovarian was above 100 µM.
For `Oc1ccccc1-c1nn(CNc2ccc(Cl)cc2)c(=S)o1`, the GI50 is 4.17 µM with MCF7 breast; above 100 µM in the test on NCI-H522 lung; above 100 µM in the test on IGROV1 ovarian; 19.9 µM with RXF 393 renal; 18.9 µM with NCI/ADR-RES ovarian; above 100 µM in the test with SNB-19 CNS. For the same compound, the GI50 in the test with MDA-MB-231 breast and in the test on 786-0 renal was above 100 µM throughout. Also, the TGI was above 100 µM in the test on MCF7 breast; above 100 µM with NCI-H522 lung; above 100 µM in the test with IGROV1 ovarian; 48.5 µM in the test on RXF 393 renal; 79.7 µM in the test on NCI/ADR-RES ovarian; above 100 µM with SNB-19 CNS. Moreover, the total growth inhibition concentration (TGI) in the test with MDA-MB-231 breast and with 786-0 renal was above 100 µM throughout.
